Results published in patent US10155726B2, “Substituted pyridines and uses thereof” (PELOTON THERAPEUTICS, INC., priority 2015, dated 2018).
Entries after “also recorded” stand apart in the source; their conditions may differ.

How the values were obtained:
[1] = molecular target: T1, HIF-2α HIS TAG-PASB Domain (Homo sapiens, UniProt Q99814); assay: HIF-2α Scintillation Proximity Assay (SPA); type: binding; conditions: displacement of tritiated probe from HIF-2α PAS-B domain
T1 construct: 100 nM HIF-2α HIS TAG-PASB Domain
Description: The total assay volume was about 100 μL in the following configuration: 2 μL compound in 100% DMSO, 88 μL buffer with protein and probe and 10 μL of SPA beads. […] The percent inhibition was determined and IC50 values were calculated using the Dotmatics system based on the following equation: % inhibition=[(high control−sample)/(high control−low control)]×100.

[2] = test system: 786-O cells; assay: VEGF ELISA Assay; type: cell-based; conditions: Homo sapiens, 786-0; VEGF concentration in culture medium of 786-O cells
Description: About 7500 786-O cells in 180 μL of growth medium were seeded into each well of a 96-well, white, clear bottom plate (07-200-566, Fisher Scientific) on day one in the layout presented in FIG. 3. […] Each concentration was plated in duplicate. About 20 hours later, medium was removed by suction and each well was supplied with 180 μL of growth medium. About 20 μl freshly-made 10× compound stocks were added to each well. […] The EC50 was calculated by GraphPad Prism using the dose-response-inhibition (four parameter) equation. The cell-seeded plate was then subjected to CellTiter-Glo luminescence cell viability assay (Promega) by adding 50 μL of Celltiter Glo reagent into each well and shaking the plate for 8 minutes at 550 rpm (Thermomixer R, Eppendorf) then the luminescence signal immediately read in a plate reader (3 second delay, 0.5 second/well integration time, Synergy 2 multi Detection Microplate reader).

[3] = test system: 786-O-Hif-Luc cells; assay: Luciferase Assay; type: cell-based; conditions: about 24 hours
Description: 786-O-Hif-Luc single clone cells were obtained by infecting 786-O cells (ATCC® CRL-1932™) with commercial lentivirus that delivers a luciferase gene driven by multiple HIF responsive elements (Cignal Lenti HIF Reporter (luc): CLS-007L, Qiagen) at Multiplicity of Infection (MOI) of 25 for 24 hours. […] A pool of infected cells were then selected against 2 μg/mL of puromycin (P8833, Sigma) for 10 days followed by limited dilution to select single clones. […] For the luciferase assay, about 7500 786-O-Hif-Luc cells in 90 μL growth medium were seeded into each well of a 96-well white opaque plate (08-771-26, Fisher scientific) a day before treatment with the layout presented in FIG. 4. […] Each concentration was tested in triplicate. After about 24 hours, luciferase activity was determined using ONE-Glo Luciferase Assay Reagent (E6110, Promega) following the manufacturer's recommended procedure. EC50 were calculated using Dotmatics software.

[4] = test system: human VEGFA; assay: PK/PD study: human VEGFA in plasma of 786-O xenograft bearing mice by ELISA; type: in vivo, SCID/Biege mice; conditions: 10 mg/kg oral gavage, six doses at 12 hour interval, 12 hours post last dose
Description: (§1) When the xenografts reached about 750 mm^3 in size, the tumor bearing mice were randomly grouped into four groups (n=3). […] All animals were sacrificed at 12 hours post last dose. Tumors and plasma were collected from each animal. Total RNA was extracted from the tumors, and the expression levels of putative HIF-2α regulated genes were determined by qRT-PCR. […] The level of human VEGFA was assessed using an ELISA assay.

[5] = test system: HIF-2α target genes VEGF, PAI-1 and CCND1; assay: PK/PD study: expression of HIF-2α regulated genes in 786-O tumor xenografts by qRT-PCR; type: in vivo, SCID/Biege mice; conditions: 10 mg/kg oral gavage, six doses at 12 hour interval, 12 hours post last dose
Description: as §1

T1 sequence (Q99814 239-348): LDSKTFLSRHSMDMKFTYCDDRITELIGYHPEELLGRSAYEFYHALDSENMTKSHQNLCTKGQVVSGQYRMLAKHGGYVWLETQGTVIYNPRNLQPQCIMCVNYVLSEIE

SMILES: CC(C)Oc1cnc(C(F)(F)F)c2c1C[C@@H](F)[C@H]2O [Compound 25]
- IC50 [1]: 250 to 1000 nM

SMILES: OC1CCc2c(OCC(F)F)cnc(C3(C(F)(F)F)CC3)c21 (centres unmarked) [Compound 39]
- IC50 [1]: > 1000 nM

SMILES: CS(=O)(=O)c1ncc(OC2CC(F)(F)C2)c2c1[C@H](O)[C@@H](F)C2 [Compound 11]
- IC50 [1]: > 1000 nM

SMILES: O[C@H]1c2c(C(F)(F)F)ncc(OC3CC(F)(F)C3)c2C[C@H]1F [Compound 1, (6R,7S)-4-(3,3-difluorocyclobutoxy)-6-fluoro-1-(trifluoromethyl)-6,7-dihydro-5H-cyclopenta[c]pyridin-7-ol]
- IC50 [1]: < 50 nM
- EC50 [2]: < 50 nM
- EC50 [3]: < 50 nM

SMILES: O[C@@H]1CCc2c(OC3CC(F)(F)C3)cnc(C(F)(F)F)c21 [Compound 2, (R)-4-(3,3-difluorocyclobutoxy)-1-(trifluoromethyl)-6,7-dihydro-5H-cyclopenta[c]pyridin-7-ol]
- IC50 [1]: < 50 nM
- EC50 [3]: 250 to 1000 nM

SMILES: O[C@H]1c2c(C(F)(F)F)ncc(OC3CC(F)(F)C3)c2[C@@H](F)[C@H]1F [Compound 37, (5R,6S,7S)-4-(3,3-difluorocyclobutoxy)-5,6-difluoro-1-(trifluoromethyl)-6,7-dihydro-5H-cyclopenta[c]pyridin-7-ol]
- IC50 [1]: < 50 nM
- EC50 [2]: < 50 nM
- level of human VEGFA in plasma of 786-O xenograft bearing mice [4]: decreased; also recorded: significant reduction
- EC50 [3]: < 50 nM
- mRNA levels of HIF-2α target genes (VEGF, PAI-1, CCND1) in 786-O xenografts [5]: decreased; also recorded: significant reduction

SMILES: O=S(=O)(c1cnc(Oc2cc(F)cc(F)c2)c2c1CCC2)C(F)F [Compound 6, 4-(difluoromethylsulfonyl)-1-(3,5-difluorophenoxy)-6,7-dihydro-5H-cyclopenta[c]pyridine]
- IC50 [1]: > 1000 nM
- EC50 [3]: > 1000 nM

SMILES: N#Cc1cc(F)cc(Oc2ncc(C(F)(F)F)c3c2C[C@@H](F)[C@H]3O)c1 [Compound 33, 3-fluoro-5-(((5S,6R)-6-fluoro-5-hydroxy-4-(trifluoromethyl)-6,7-dihydro-5H-cyclopenta[c]pyridin-1-yl)oxy)benzonitrile]
- IC50 [1]: > 1000 nM

SMILES: O[C@H]1c2c(C(F)(F)F)ncc(OCCCF)c2C[C@@H]1F [Compound 24]
- IC50 [1]: 50 to 249 nM

SMILES: O[C@H]1c2c(C(F)F)ncc(OC3CC(F)(F)C3)c2C[C@H]1F [Compound 30]
- IC50 [1]: > 1000 nM

SMILES: O/N=C1/c2c(C(F)(F)F)ncc(OCC(F)F)c2CC1F (centres unmarked) [Compound 38]
- IC50 [1]: > 1000 nM

SMILES: N#Cc1cc(F)cc(Oc2cnc(C(F)(F)F)c3c2[C@@H](F)[C@@H](F)[C@H]3O)c1 [Compound 22, 3-(((5R,6S,7S)-5,6-difluoro-7-hydroxy-1-(trifluoromethyl)-6,7-dihydro-5H-cyclopenta[c]pyridin-4-yl)oxy)-5-fluorobenzonitrile]
- IC50 [1]: < 50 nM
- EC50 [2]: < 50 nM
- level of human VEGFA in plasma of 786-O xenograft bearing mice [4]: decreased; also recorded: significant reduction
- EC50 [3]: < 50 nM
- mRNA levels of HIF-2α target genes (VEGF, PAI-1, CCND1) in 786-O xenografts [5]: decreased; also recorded: significant reduction

SMILES: O[C@H]1c2c(C(F)(F)F)ncc(-c3cc(F)cc(F)c3)c2C[C@H]1F [Compound 36]
- IC50 [1]: 250 to 1000 nM

SMILES: N#Cc1cc(F)cc(-c2cnc(C(F)(F)F)c3c2C[C@@H](F)[C@H]3O)c1 (racemic) [Compound 7, 3-fluoro-5-((6R,7S)-6-fluoro-7-hydroxy-1-(trifluoromethyl)-6,7-dihydro-5H-cyclopenta[c]pyridin-4-yl)benzonitrile]
- IC50 [1]: 250 to 1000 nM
- EC50 [3]: 250 to 1000 nM

SMILES: CS(=O)(=O)c1cnc(Oc2cc(F)cc(C#N)c2)c2c1[C@H](O)[C@H](F)[C@@H]2F [Compound 18]
- IC50 [1]: > 1000 nM

SMILES: O[C@H]1c2c(C(F)(F)F)ncc(-c3ccccc3)c2C[C@H]1F [Compound 35]
- IC50 [1]: > 1000 nM

SMILES: N#Cc1cc(F)cc(Oc2ncc(Br)c3c2[C@@H](F)C(F)(F)[C@H]3O)c1 [Compound 17]
- IC50 [1]: 50 to 249 nM
- EC50 [3]: > 1000 nM

SMILES: N#Cc1cc(F)cc(Oc2cnc(C(F)(F)F)c3c2C[C@@H](F)[C@H]3O)c1 [Compound 3, 3-fluoro-5-(((6R,7S)-6-fluoro-7-hydroxy-1-(trifluoromethyl)-6,7-dihydro-5H-cyclopenta[c]pyridin-4-yl)oxy)benzonitrile]
- IC50 [1]: < 50 nM
- EC50 [2]: 50 to 249 nM
- EC50 [3]: < 50 nM

SMILES: O[C@H]1c2c(C(F)(F)F)ncc(OCCCF)c2C[C@H]1F [Compound 23]
- IC50 [1]: < 50 nM
- EC50 [3]: 50 to 249 nM

SMILES: CS(=O)(=O)c1cnc(Oc2cc(F)cc(C#N)c2)c2c1[C@H](O)[C@H](F)C2 [Compound 19]
- IC50 [1]: > 1000 nM

SMILES: CS(=O)(=O)c1cnc(Oc2cc(F)cc(C#N)c2)c2c1C(O)CC2 (centres unmarked) [Compound 28]
- IC50 [1]: > 1000 nM

SMILES: N#Cc1cc(F)cc(Oc2ncc(Br)c3c2C(F)C(F)(F)C3F)c1 (centres unmarked) [Compound 16]
- IC50 [1]: > 1000 nM

SMILES: CS(=O)(=O)c1cnc(Oc2cc(F)cc(C#N)c2)c2c1[C@H](O)C(F)(F)[C@H]2F [Compound 21]
- IC50 [1]: 250 to 1000 nM
- EC50 [3]: > 1000 nM

SMILES: O[C@@H]1CCc2c(OCC(F)F)cnc(C(F)(F)F)c21 [Compound 10]
- IC50 [1]: > 1000 nM
- EC50 [3]: > 1000 nM

SMILES: O[C@H]1c2c(C(F)(F)F)ncc(OCC(F)F)c2C[C@H]1F [Compound 9]
- IC50 [1]: < 50 nM
- EC50 [2]: 250 to 1000 nM
- EC50 [3]: 50 to 249 nM

SMILES: O[C@H]1c2c(C(F)(F)F)ncc(OCC(F)F)c2C[C@@H]1F [Compound 27]
- IC50 [1]: 50 to 249 nM
- EC50 [3]: 50 to 249 nM

SMILES: CC(C)Oc1cnc(C(F)(F)F)c2c1C[C@H](F)[C@H]2O [Compound 26]
- IC50 [1]: > 1000 nM

SMILES: CS(=O)(=O)c1cnc(Oc2cc(F)cc(C#N)c2)c2c1[C@H](O)C(F)(F)[C@@H]2F [Compound 20]
- IC50 [1]: < 50 nM
- EC50 [3]: > 1000 nM

SMILES: N#Cc1cc(F)cc(Oc2cnc(C(F)(F)F)c3c2CCC3O)c1 (centres unmarked) [Compound 8]
- IC50 [1]: < 50 nM
- EC50 [3]: 250 to 1000 nM

SMILES: O[C@H]1c2c(C(F)(F)F)ncc(Oc3cncc(F)c3)c2[C@@H](F)[C@H]1F [Compound 40]
- IC50 [1]: < 50 nM
- EC50 [3]: < 50 nM

SMILES: O[C@H]1c2c(C(F)(F)F)ncc(O[C@H]3C[C@H](F)C3)c2C[C@H]1F [Compound 14]
- IC50 [1]: < 50 nM
- EC50 [2]: < 50 nM
- EC50 [3]: < 50 nM

SMILES: O[C@H]1c2c(C(F)(F)F)ncc(Oc3cncc(F)c3)c2C[C@H]1F [Compound 13]
- IC50 [1]: 50 to 249 nM
- EC50 [3]: 50 to 249 nM

SMILES: N#Cc1cc(F)cc(Oc2ncc(C(F)(F)F)c3c2CCC3O)c1 (centres unmarked) [Compound 32]
- IC50 [1]: > 1000 nM

SMILES: CS(=O)(=O)c1ncc(Oc2cc(F)cc(C#N)c2)c2c1[C@H](O)[C@H](F)C2 [Compound 4, 3-fluoro-5-(((6R,7S)-6-fluoro-7-hydroxy-1-(methylsulfonyl)-6,7-dihydro-5H-cyclopenta[c]pyridin-4-yl)oxy)benzonitrile]
- IC50 [1]: 50 to 249 nM
- EC50 [3]: 250 to 1000 nM

SMILES: O[C@H]1c2c(C(F)F)ncc(OC3CC(F)(F)C3)c2C[C@@H]1F [Compound 31]
- IC50 [1]: > 1000 nM

SMILES: CS(=O)(=O)c1ncc(OC2CC(F)(F)C2)c2c1[C@H](O)[C@H](F)C2 [Compound 12]
- IC50 [1]: 250 to 1000 nM
- EC50 [3]: > 1000 nM

SMILES: N#Cc1cc(F)cc(Oc2nnc(C(F)(F)F)c3c2CCC3O)c1 (centres unmarked) [Compound 42, 3-fluoro-5-((5-hydroxy-4-(trifluoromethyl)-6,7-dihydro-5H-cyclopenta[d]pyridazin-1-yl)oxy)benzonitrile]
- IC50 [1]: > 1000 nM
- EC50 [3]: > 1000 nM
